Legend:
[1] = target: Adenosine receptor A2a (Rattus norvegicus, UniProt P30543); assay: biochemical
Description: Binding affinity towards adenosine A2A receptor in rat brain striatum

[2] = target: T1, Adenosine receptor A1 (Rattus norvegicus, UniProt P25099); assay: biochemical
T1 sequence (P25099 whole entry): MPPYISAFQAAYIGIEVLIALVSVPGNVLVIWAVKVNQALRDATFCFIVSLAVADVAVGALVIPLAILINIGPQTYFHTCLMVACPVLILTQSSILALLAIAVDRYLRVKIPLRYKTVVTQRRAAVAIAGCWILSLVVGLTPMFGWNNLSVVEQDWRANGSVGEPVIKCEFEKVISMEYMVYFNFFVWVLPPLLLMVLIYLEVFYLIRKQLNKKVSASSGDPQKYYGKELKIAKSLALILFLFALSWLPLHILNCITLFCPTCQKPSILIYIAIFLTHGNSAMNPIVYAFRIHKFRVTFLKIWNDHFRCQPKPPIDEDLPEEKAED
Description: Binding affinity towards adenosine A1 receptor in rat brain cortex

Sequence of Adenosine receptor A2a (P30543 whole entry): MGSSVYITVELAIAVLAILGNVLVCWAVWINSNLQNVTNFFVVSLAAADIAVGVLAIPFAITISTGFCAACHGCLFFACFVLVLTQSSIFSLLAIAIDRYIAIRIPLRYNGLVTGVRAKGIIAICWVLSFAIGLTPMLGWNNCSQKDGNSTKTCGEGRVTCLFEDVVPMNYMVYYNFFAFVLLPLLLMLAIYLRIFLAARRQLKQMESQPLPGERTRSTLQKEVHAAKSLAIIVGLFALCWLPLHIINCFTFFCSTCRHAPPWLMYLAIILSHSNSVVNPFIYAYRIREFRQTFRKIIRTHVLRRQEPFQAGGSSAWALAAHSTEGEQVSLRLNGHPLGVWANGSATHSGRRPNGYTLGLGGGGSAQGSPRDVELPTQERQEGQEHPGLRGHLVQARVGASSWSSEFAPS

Row | Compound | Ki [1] | Ki [2]
1 | CCNC(=O)[C@H]1OC(n2cnc3c(N)nc(CC4CCC(C(=O)OC)CC4)nc32)[C@H](O)[C@@H]1O (some centres undefined) | 0.0045 µM | 0.0281 µM
2 | C[C@@H](CCOc1nc(N)c2ncn(C3O[C@H](CO)[C@H](O)[C@@H]3O)c2n1)c1ccccc1 (some centres undefined) | 1.7 µM | 1.6 µM
3 | Cc1ccccc1CCOc1nc(N)c2ncn(C3O[C@H](CO)[C@@H](O)[C@H]3O)c2n1 (some centres undefined) | 0.039 µM | 0.45 µM
4 | CC[C@H](COc1nc(N)c2ncn(C3O[C@H](CO)[C@@H](O)[C@H]3O)c2n1)c1ccccc1 (some centres undefined) | 0.43 µM | 2.3 µM
5 | Nc1nc(OCCCCC2CCCCC2)nc2c1ncn2C1O[C@H](CO)[C@@H](O)[C@H]1O (some centres undefined) | 0.018 µM | 1.1 µM
6 | COCc1nc(N)c2ncn(C3O[C@H](CO)[C@@H](O)[C@H]3O)c2n1 (some centres undefined) | 0.0881 µM | 0.0381 µM
7 | CCOCCCc1nc(N)c2ncn(C3O[C@H](CO)[C@@H](O)[C@H]3O)c2n1 (some centres undefined) | 0.0128 µM | 0.244 µM
8 | CCC(CC)COc1nc(N)c2ncn(C3O[C@H](CO)[C@@H](O)[C@H]3O)c2n1 (some centres undefined) | 4.6 µM | 2.7 µM
9 | CCNC(=O)[C@H]1OC(n2cnc3c(N)nc(CC4CCC(COC(C)=O)CC4)nc32)[C@H](O)[C@@H]1O (some centres undefined) | 0.0062 µM | 0.014 µM
10 | Nc1nc(C#CC2CCCC2)nc2c1ncn2[C@@H]1O[C@H](CO)[C@@H](O)[C@H]1O | 0.012 µM | 
11 | CCNC(=O)[C@H]1OC(n2cnc3c(N)nc(NCCc4ccc(OCC(=O)O)cc4)nc32)[C@H](O)[C@@H]1O (some centres undefined) | 0.042 µM | 
12 | CCNC(=O)[C@H]1OC(n2cnc3c(N)nc(NCCc4ccc(Cl)cc4)nc32)[C@H](O)[C@@H]1O (some centres undefined) | 0.0075 µM | 
13 | CCCOCCc1nc(N)c2ncn(C3O[C@H](CO)[C@@H](O)[C@H]3O)c2n1 (some centres undefined) | 0.0102 µM | 0.128 µM
14 | COc1ccc(CCOc2nc(N)c3ncn(C4O[C@H](CO)[C@@H](O)[C@H]4O)c3n2)cc1OC (some centres undefined) | 0.04 µM | 0.38 µM
15 | Nc1nc(OCCC2CCCCC2)nc2c1ncn2[C@@H]1O[C@H](CO)[C@@H](O)[C@H]1O | 0.022 µM | 1.6 µM
16 | Nc1nc(OCCc2cccc(F)c2)nc2c1ncn2[C@@H]1O[C@H](CO)[C@@H](O)[C@H]1O (stereo in doubt; 24) | 0.058 µM | 0.15 µM
17 | Nc1nc(OCCC2CCCC2)nc2c1ncn2C1O[C@H](CO)[C@@H](O)[C@H]1O (some centres undefined) | 0.12 µM | 1.6 µM
18 | Nc1nc(C#CC2CCCCC2)nc2c1ncn2C1O[C@H](CO)[C@@H](O)[C@H]1O (some centres undefined) | 0.01 µM | 
19 | Nc1nc(OCCO)nc2c1ncn2C1O[C@H](CO)[C@@H](O)[C@H]1O (some centres undefined) | 0.69 µM | 0.072 µM
20 | COc1cc(CCOc2nc(N)c3ncn(C4O[C@H](CO)[C@@H](O)[C@H]4O)c3n2)cc(OC)c1OC (some centres undefined) | 0.33 µM | 5 µM
21 | CC(C)CCCOc1nc(N)c2ncn(C3O[C@H](CO)[C@@H](O)[C@H]3O)c2n1 (some centres undefined) | 0.13 µM | 2.1 µM
22 | Cc1cccc(CCOc2nc(N)c3ncn(C4O[C@H](CO)[C@@H](O)[C@H]4O)c3n2)c1 (some centres undefined) | 0.061 µM | 0.14 µM
23 | CCNC(=O)[C@H]1OC(n2cnc3c(N)nc(C#CNCCc4ccc(CC(=O)O)cc4)nc32)[C@H](O)[C@@H]1O (some centres undefined) | 0.045 µM | 4.88 µM
24 | Nc1nc(OCCCc2ccccc2)nc2c1ncn2[C@@H]1O[C@H](CO)[C@@H](O)[C@H]1O | 1.2 µM | 3.6 µM

Row | Compound | Ki [1] | Ki [2]
25 | Nc1nc(OCCc2ccc(Cl)cc2)nc2c1ncn2[C@@H]1O[C@H](CO)[C@@H](O)[C@H]1O [SONEDENOSON] | 0.022 µM | 0.089 µM
26 | CCNC(=O)[C@H]1OC(n2cnc3c(N)nc(C#CNCCc4ccc(CC(=O)OC)cc4)nc32)[C@H](O)[C@@H]1O (some centres undefined) | 0.009 µM | 1.26 µM
27 | Nc1nc(OCCc2ccccc2)nc2c1ncn2[C@@H]1O[C@H](CO)[C@@H](O)[C@H]1O | 0.017 µM | 0.13 µM
28 | CCCCCC#Cc1nc(N)c2ncn([C@@H]3O[C@H](CO)[C@@H](O)[C@H]3O)c2n1 | 0.0054 µM | 
29 | Nc1nc(CO)nc2c1ncn2C1O[C@H](CO)[C@@H](O)[C@H]1O (some centres undefined) | 0.0205 µM | 0.0101 µM
30 | CCCOCc1nc(N)c2ncn(C3O[C@H](CO)[C@@H](O)[C@H]3O)c2n1 (some centres undefined) | 0.0106 µM | 
31 | Nc1nc(C#CCCc2ccccc2)nc2c1ncn2[C@@H]1O[C@H](CO)[C@@H](O)[C@H]1O | 0.037 µM | 
32 | CCNC(=O)[C@H]1OC(n2cnc3c(N)nc(C#CN(C)CCc4ccccc4)nc32)[C@H](O)[C@@H]1O (some centres undefined) | 0.071 µM | 12.1 µM
33 | Nc1nc(OCCCCc2ccccc2)nc2c1ncn2[C@@H]1O[C@H](CO)[C@@H](O)[C@H]1O | 0.17 µM | 2.4 µM
34 | C#Cc1nc(N)c2ncn(C3O[C@H](CO)[C@@H](O)[C@H]3O)c2n1 (some centres undefined) | 0.0376 µM | 
35 | COc1ccccc1CCOc1nc(N)c2ncn(C3O[C@H](CO)[C@@H](O)[C@H]3O)c2n1 (some centres undefined) | 0.036 µM | 0.19 µM
36 | CCNC(=O)[C@H]1OC(n2cnc3c(N)nc(C#CNCCc4ccc(F)cc4)nc32)[C@H](O)[C@@H]1O (some centres undefined) | 0.0077 µM | 1.18 µM
37 | Nc1nc(OCCCC2CCCCC2)nc2c1ncn2C1O[C@H](CO)[C@@H](O)[C@H]1O (some centres undefined) | 0.022 µM | 2.8 µM
38 | COc1cccc(CCOc2nc(N)c3ncn(C4O[C@H](CO)[C@@H](O)[C@H]4O)c3n2)c1 (some centres undefined) | 0.32 µM | 0.76 µM
39 | Nc1nc(OCc2ccccc2)nc2c1ncn2C1O[C@H](CO)[C@@H](O)[C@H]1O (some centres undefined) | 2.2 µM | 0.6 µM
40 | CCCCCOc1nc(N)c2ncn(C3O[C@H](CO)[C@@H](O)[C@H]3O)c2n1 (some centres undefined) | 0.15 µM | 0.46 µM
41 | CCCOc1nc(N)c2ncn(C3O[C@H](CO)[C@@H](O)[C@H]3O)c2n1 (some centres undefined) | 0.36 µM | 1.2 µM
42 | Nc1nc(OCCc2cccc(F)c2)nc2c1ncn2[C@@H]1O[C@H](CO)[C@@H](O)[C@H]1O (stereo in doubt; 92) | 0.11 µM | 0.18 µM
43 | CCNC(=O)[C@H]1OC(n2cnc3c(N)nc(C#CNCCc4ccccc4)nc32)[C@H](O)[C@@H]1O (some centres undefined) | 0.0097 µM | 0.473 µM
44 | CCNC(=O)[C@H]1OC(n2cnc3c(N)nc(CC4CCC(C(=O)O)CC4)nc32)[C@H](O)[C@@H]1O (some centres undefined) | 0.0201 µM | 0.292 µM
45 | CC(C)COc1nc(N)c2ncn(C3O[C@H](CO)[C@@H](O)[C@H]3O)c2n1 (some centres undefined) | 0.7 µM | 2.6 µM
46 | CCNC(=O)[C@H]1OC(n2cnc3c(N)nc(CC4CCC(CO)CC4)nc32)[C@H](O)[C@@H]1O (some centres undefined) | 0.00048 µM | 0.00084 µM
47 | CCNC(=O)[C@H]1OC(n2cnc3c(N)nc(C#CNCc4ccccc4)nc32)[C@H](O)[C@@H]1O (some centres undefined) | 1.13 µM | 8.6 µM
48 | CCCCc1nc(N)c2ncn(C3O[C@H](CO)[C@@H](O)[C@H]3O)c2n1 (some centres undefined) | 0.0028 µM | 0.126 µM

Row | Compound | Ki [1] | Ki [2]
49 | Cc1ccc(CCOc2nc(N)c3ncn(C4O[C@H](CO)[C@@H](O)[C@H]4O)c3n2)cc1 (some centres undefined) | 0.011 µM | 0.049 µM
50 | Nc1nc(OCCc2ccc(F)cc2)nc2c1ncn2[C@@H]1O[C@H](CO)[C@@H](O)[C@H]1O | 0.097 µM | 0.5 µM
51 | Nc1nc(OCC2CCCCC2)nc2c1ncn2C1O[C@H](CO)[C@@H](O)[C@H]1O (some centres undefined) | 3.2 µM | 3 µM
52 | Nc1nc(OCCCCCc2ccccc2)nc2c1ncn2C1O[C@H](CO)[C@@H](O)[C@H]1O (some centres undefined) | 0.053 µM | 0.96 µM
53 | Nc1nc(OCCc2cccc(Cl)c2)nc2c1ncn2C1O[C@H](CO)[C@@H](O)[C@H]1O (some centres undefined) | 0.076 µM | 0.25 µM
54 | CCCCCCc1nc(N)c2ncn(C3O[C@H](CO)[C@@H](O)[C@H]3O)c2n1 (some centres undefined) | 0.0121 µM | 0.202 µM
55 | Nc1nc(OC2CCCC2)nc2c1ncn2[C@@H]1O[C@H](CO)[C@@H](O)[C@H]1O | 1 µM | 14 µM
56 | CCC(CC)CCOc1nc(N)c2ncn(C3O[C@H](CO)[C@@H](O)[C@H]3O)c2n1 (some centres undefined) | 0.53 µM | 1.49 µM
57 | CC(C)(C)OC(=O)C1CCCN1C[C@@H](O)[C@H](Cc1ccccc1)NC(=O)[C@H](CC(N)=O)NC(=O)OCc1ccccc1 (some centres undefined) | 0.0022 µM | 0.13 µM
58 | Nc1nc(C#CCCC2CCCC2)nc2c1ncn2C1O[C@H](CO)[C@@H](O)[C@H]1O (some centres undefined) | 0.0034 µM | 
59 | Nc1nc(Oc2ccccc2)nc2c1ncn2C1O[C@H](CO)[C@@H](O)[C@H]1O (some centres undefined) | 5.7 µM | 3.5 µM
60 | COc1ccc(CCOc2nc(N)c3ncn(C4O[C@H](CO)[C@@H](O)[C@H]4O)c3n2)cc1 (some centres undefined) | 0.032 µM | 0.48 µM
61 | CC(C)Oc1nc(N)c2ncn(C3O[C@H](CO)[C@@H](O)[C@H]3O)c2n1 (some centres undefined) | 7.4 µM | 20 µM
62 | Nc1nc(C#Cc2ccccc2)nc2c1ncn2[C@@H]1O[C@H](CO)[C@@H](O)[C@H]1O | 0.109 µM | 
63 | CCOc1nc(N)c2ncn([C@@H]3O[C@H](CO)[C@@H](O)[C@H]3O)c2n1 | 1.5 µM | 1.3 µM
64 | Nc1nc(C#CCCC2CCCCC2)nc2c1ncn2C1O[C@H](CO)[C@@H](O)[C@H]1O (some centres undefined) | 0.026 µM | 
65 | CCc1nc(N)c2ncn(C3O[C@H](CO)[C@@H](O)[C@H]3O)c2n1 (some centres undefined) | 0.0212 µM | 0.186 µM
66 | Nc1nc(OCCc2ccccc2Cl)nc2c1ncn2C1O[C@H](CO)[C@@H](O)[C@H]1O (some centres undefined) | 0.056 µM | 0.52 µM
67 | CCCCCCOc1nc(N)c2ncn(C3O[C@H](CO)[C@@H](O)[C@H]3O)c2n1 (some centres undefined) | 0.16 µM | 0.89 µM
68 | Nc1nc(CCO)nc2c1ncn2C1O[C@H](CO)[C@@H](O)[C@H]1O (some centres undefined) | 0.0401 µM | 0.0814 µM
69 | CCCc1nc(N)c2ncn(C3O[C@H](CO)[C@@H](O)[C@H]3O)c2n1 (some centres undefined) | 0.0075 µM | 0.154 µM
70 | CCCCOc1nc(N)c2ncn(C3O[C@H](CO)[C@@H](O)[C@H]3O)c2n1 (some centres undefined) | 0.27 µM | 2.5 µM
